Results reported in ChEMBL document CHEMBL1150395, “IRAK-4 inhibitors. Part II: a structure-based assessment of imidazo[1,2-a]pyridine binding” (Bioorg Med Chem Lett, 2008).

How the values were obtained:
[1] = molecular target: T1, Mitogen-activated protein kinase 8 (Homo sapiens, UniProt P45983); assay: Inhibition of JNK1 at 10 uM
[2] = molecular target: T2, Interleukin-1 receptor-associated kinase 4 (Homo sapiens, UniProt Q9NWZ3); assay: Inhibition of IRAK4
T2 sequence (Q9NWZ3 whole entry): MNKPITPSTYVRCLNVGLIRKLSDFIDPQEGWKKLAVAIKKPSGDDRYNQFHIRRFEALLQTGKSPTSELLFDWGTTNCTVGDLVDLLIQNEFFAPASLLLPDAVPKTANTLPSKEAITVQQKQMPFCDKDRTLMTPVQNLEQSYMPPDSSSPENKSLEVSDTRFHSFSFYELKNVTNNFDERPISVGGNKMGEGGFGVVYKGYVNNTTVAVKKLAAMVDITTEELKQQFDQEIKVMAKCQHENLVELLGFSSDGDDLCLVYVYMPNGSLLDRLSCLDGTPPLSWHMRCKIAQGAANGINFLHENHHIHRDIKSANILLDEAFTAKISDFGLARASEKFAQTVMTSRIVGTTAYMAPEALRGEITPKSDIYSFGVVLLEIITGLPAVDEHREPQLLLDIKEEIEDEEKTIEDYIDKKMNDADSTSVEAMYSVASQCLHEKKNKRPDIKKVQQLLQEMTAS

[3] = molecular target: T3, Mitogen-activated protein kinase 9 (Homo sapiens, UniProt P45984); assay: Inhibition of JNK2 at 10 uM
Target sequence in this assay (P45984 whole entry, looked up): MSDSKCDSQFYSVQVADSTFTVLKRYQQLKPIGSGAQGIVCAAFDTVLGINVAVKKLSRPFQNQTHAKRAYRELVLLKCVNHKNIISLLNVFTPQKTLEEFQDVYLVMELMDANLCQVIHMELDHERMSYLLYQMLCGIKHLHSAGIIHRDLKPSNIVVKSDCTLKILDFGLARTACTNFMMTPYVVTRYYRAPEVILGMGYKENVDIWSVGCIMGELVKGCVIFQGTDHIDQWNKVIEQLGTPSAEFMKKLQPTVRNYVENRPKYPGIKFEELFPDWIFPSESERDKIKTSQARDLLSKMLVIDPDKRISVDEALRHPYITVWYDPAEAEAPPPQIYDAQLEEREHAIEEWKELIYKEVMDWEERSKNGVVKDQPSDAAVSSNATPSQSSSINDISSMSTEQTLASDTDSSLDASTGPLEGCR

[4] = molecular target: T1, Mitogen-activated protein kinase 8; assay: Inhibition of JNK1
[5] = molecular target: Mitogen-activated protein kinase 10 (Homo sapiens, UniProt P53779); assay: Inhibition of JNK3
Mitogen-activated protein kinase 10, sequence (P53779 whole entry): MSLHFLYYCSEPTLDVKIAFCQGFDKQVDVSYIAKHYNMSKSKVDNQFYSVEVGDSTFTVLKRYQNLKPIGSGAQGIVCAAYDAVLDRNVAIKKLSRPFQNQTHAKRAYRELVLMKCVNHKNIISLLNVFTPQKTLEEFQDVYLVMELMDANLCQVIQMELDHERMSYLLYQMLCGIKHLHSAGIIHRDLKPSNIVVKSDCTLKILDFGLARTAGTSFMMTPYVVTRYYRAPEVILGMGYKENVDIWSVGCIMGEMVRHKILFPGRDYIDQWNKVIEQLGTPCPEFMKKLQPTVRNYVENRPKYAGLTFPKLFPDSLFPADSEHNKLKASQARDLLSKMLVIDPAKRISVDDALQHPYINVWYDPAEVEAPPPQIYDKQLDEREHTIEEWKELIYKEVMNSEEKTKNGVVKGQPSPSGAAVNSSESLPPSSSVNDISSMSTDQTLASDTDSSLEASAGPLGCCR

[6] = molecular target: T3, Mitogen-activated protein kinase 9; assay: Inhibition of JNK2
Target sequence in this assay (P45984 whole entry): as the sequence (P45984 whole entry, looked up) above

[7] = molecular target: T4, Interleukin-1 receptor-associated kinase 4 (Homo sapiens) (UniProt Q9NWZ3); assay: Inhibition of IRAK4 at 10 uM
T4 sequence (whole entry): T2 sequence (Q9NWZ3 whole entry)

T1 sequence (P45983 whole entry): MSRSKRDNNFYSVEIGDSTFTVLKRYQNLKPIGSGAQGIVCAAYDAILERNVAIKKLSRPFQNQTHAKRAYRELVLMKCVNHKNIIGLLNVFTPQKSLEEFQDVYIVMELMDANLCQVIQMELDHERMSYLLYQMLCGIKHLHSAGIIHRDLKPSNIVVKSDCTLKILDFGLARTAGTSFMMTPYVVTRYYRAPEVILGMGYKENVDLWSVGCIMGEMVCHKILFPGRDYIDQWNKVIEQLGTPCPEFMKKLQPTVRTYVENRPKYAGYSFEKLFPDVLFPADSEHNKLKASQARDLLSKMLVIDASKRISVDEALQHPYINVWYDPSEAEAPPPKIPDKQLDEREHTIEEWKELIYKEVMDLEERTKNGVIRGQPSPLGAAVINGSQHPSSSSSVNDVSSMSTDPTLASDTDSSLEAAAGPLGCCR

In the case of `c1ccn2c(-c3ccnc(OC4CCNCC4)n3)cnc2c1`, the inhibition [1] is reported as 24%, the IC50 [2] is reported as 1190 nM and the inhibition [3] is reported as 30%.
Work on `c1ccn2c(-c3ccnc(NC4CCNCC4)n3)cnc2c1` yielded an IC50 [2] of 216 nM, an inhibition [3] of 59% and an IC50 [4] of 3800 nM.
With `CN(c1nccc(-c2cnc3ccccn23)n1)C1CCCCC1` the IC50 [2] was 400 nM and the IC50 [5] was 3 nM.
`c1cc(NC2CCNCC2)nc(-c2n[nH]c3ccccc23)c1` gave an IC50 [2] of 456 nM, an IC50 [4] of 2080 nM and an IC50 [6] of 1760 nM.
Work on `c1cc(NC2CCNCC2)nc(-n2ccc3ccccc32)c1` yielded an inhibition [1] of 0%, an inhibition [7] of 30% and an inhibition [3] of 0%.
For `CN(c1nccc(-c2cnc3ccccn23)n1)C1CCNCC1`, the inhibition [1] was 33%, the IC50 [2] was 200 nM and the inhibition [3] was 35%.
`c1cc(NC2CCNCC2)nc(-c2cnc3ccccn23)c1` showed an inhibition [1] of 39%, an IC50 [2] of 35 nM and an inhibition [3] of 15%.
Work on `c1cc(NC2CCNCC2)nc(-c2cncc3ccccc23)c1` yielded an inhibition [1] of 5%, an IC50 [2] of 1930 nM and an inhibition [3] of 0%.
Work on `c1cc(NC2CCNCC2)nc(-n2cnc3ccccc32)c1` yielded an inhibition [1] of 0%, an IC50 [2] of 70 nM and an inhibition [3] of 0%.
`c1ccn2c(-c3ccnc(NC4CCNCC4)c3)cnc2c1` gave an inhibition [1] of 0%, an inhibition [7] of 31% and an inhibition [3] of 0%.
`CNC(=O)CN1CCC(Nc2nccc(-c3cnc4ccccn34)n2)CC1` was tested, and the IC50 [5] was 270 nM.
